IC50 data for 13 molecules are collected here from patent US12686665B2, “Bicyclic fused ring derivative or salt thereof and pharmaceutical composition comprising same” (YUHAN CORPORATION, priority 2021, dated 2026).

This assay concerns the target T1, recombinant human Lysyl Oxidase-Like 2 (LOXL2) (Homo sapiens, UniProt Q9Y4K0).
T1 construct: purchased R&D systems
T1 sequence (Q9Y4K0 26-774): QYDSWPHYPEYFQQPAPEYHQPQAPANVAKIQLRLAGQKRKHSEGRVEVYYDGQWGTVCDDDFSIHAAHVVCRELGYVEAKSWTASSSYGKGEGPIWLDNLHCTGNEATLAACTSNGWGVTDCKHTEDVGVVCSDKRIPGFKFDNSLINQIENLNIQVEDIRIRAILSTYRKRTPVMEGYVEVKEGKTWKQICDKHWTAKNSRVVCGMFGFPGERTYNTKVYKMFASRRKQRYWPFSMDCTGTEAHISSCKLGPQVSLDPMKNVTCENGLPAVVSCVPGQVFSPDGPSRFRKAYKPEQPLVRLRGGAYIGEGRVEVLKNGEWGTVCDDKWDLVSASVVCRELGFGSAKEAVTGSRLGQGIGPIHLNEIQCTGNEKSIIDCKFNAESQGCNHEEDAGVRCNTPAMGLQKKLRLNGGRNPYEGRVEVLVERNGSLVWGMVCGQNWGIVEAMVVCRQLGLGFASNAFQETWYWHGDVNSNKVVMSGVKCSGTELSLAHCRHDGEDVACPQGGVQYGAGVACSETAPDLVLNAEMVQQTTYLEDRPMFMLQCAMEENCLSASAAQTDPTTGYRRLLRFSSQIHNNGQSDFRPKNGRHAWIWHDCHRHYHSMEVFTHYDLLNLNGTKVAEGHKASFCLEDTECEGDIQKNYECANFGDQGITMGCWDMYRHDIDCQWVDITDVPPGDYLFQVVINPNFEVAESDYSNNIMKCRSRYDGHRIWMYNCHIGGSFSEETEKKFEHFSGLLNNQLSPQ
As to the kind of experiment: Amplex Red HRP-coupled amine oxidase assay, recombinant human LOXL2. In kind it is biochemical. The following applies: 60 min incubation with enzyme at 37° C., putrescine substrate, read-out: Inhibitory activity (IC50, nM) human LOXL2. The procedure: The activities of the compounds according to the present invention against recombinant human Lysyl Oxidase-Like 2 (recombinant human LOXL2, R&D systems) were evaluated by measuring the levels of hydrogen peroxide in the HRP (horseradish peroxidase) coupled reactions, with the Amplex Red Hydrogen Peroxide Assay Kit (Molecular Probes, Invitrogen, USA). The tests were carried out at 37° C., and putrescine was used as a substrate. In the HRP coupling reaction, the oxidation of 10-acetyl-3,7-dihydroxyphenoxazine (Amplex Red reagent) by hydrogen peroxide generates a fluorescent product, i.e., resorufin. Briefly, the test compounds were dissolved in dimethyl sulfoxide (DMSO) at a concentration of 20 mM. Dose-response measurements were carried out by serial dilutions in DMSO to generate a six-point curve. The upper concentration was adjusted according to the potency of the compound, and then diluted with the reaction buffer to obtain a final DMSO concentration of 1%. Purified human LOXL2 in 50 mM sodium phosphate buffer (pH7.4) was added to each well of a 96 well black plate. The test compounds dissolved in DMSO were incubated with the human LOXL2 enzyme at 37° C. for 60 minutes. After the incubation for 60 minutes, a reaction mixture containing 400 μM Amplex Red reagent, 30 mM putrescine, and 2 U/mL HRP in 50 mM sodium phosphate buffer (pH 7.4) was added to each well. Fluorescence was measured with a microplate reader (Flexstation3, Molecular Devices), under the conditions of excitation at 530 nm and emission at 590 nm, 1 hour after the addition of the mixture. Inhibition by each compound was measured as % reduction in signal, compared to the control without an inhibitor (diluted DMSO only). The data were fixed to a four-variable logistic model, and […] values were calculated using the GraphPad Prism program.

Where a name gives a salt, the structure may show the parent alone.

For `N#Cc1cc(-c2cc(CO)ccc2F)c2ncn(C/C(F)=C/CN)c2c1` [Example 185, (Z)-1-(4-amino-2-fluorobut-2-en-1-yl)-4-(2-fluoro-5-(hydroxymethyl)phenyl)-1H-benzo[d]imidazol-6-carbonitrile hydrochloride], the IC50 came to 105 nM.

With `N#Cc1cc(-c2cccc(CO)c2Cl)c2ncn(C/C(F)=C/CN)c2c1` [Example 186, (Z)-1-(4-amino-2-fluoro-2-but-1-yl)-4-(2-chloro-3-(hydroxymethyl)phenyl)-1H-benzo[d]imidazol-6-carbonitrile hydrochloride], the IC50 came out at 109 nM.

On to `N#Cc1cc(-c2cccnc2)c2ncn(C/C(F)=C/CN)c2c1` [Example 187, (Z)-1-(4-amino-2-fluorobut-2-en-1-yl)-4-(pyridin-3-yl)-1H-benzo[d]imidazol-6-carbonitrile hydrochloride], for which the concentration for half-maximal inhibition (IC50) came to 464 nM.

With `N#Cc1cc(-c2cncc(F)c2)c2ncn(C/C(F)=C/CN)c2c1` [Example 188, (Z)-1-(4-amino-2-fluorobut-2-en-1-yl)-4-(5-fluoropyridin-3-yl)-1H-benzo[d]imidazol-6-carbonitrile hydrochloride], the IC50 is 131 nM.

With `N#Cc1cc(-c2cncc(Cl)c2)c2ncn(C/C(F)=C/CN)c2c1` [Example 189, (Z)-1-(4-amino-2-fluorobut-2-en-1-yl)-4-(5-chloropyridin-3-yl)-1H-benzo[d]imidazol-6-carbonitrile hydrochloride], the IC50 was 92.8 nM.

Take `N#Cc1cc(-c2cncnc2)c2ncn(C/C(F)=C/CN)c2c1` [Example 190, (Z)-1-(4-amino-2-fluorobut-2-en-1-yl)-4-(pyrimidin-5-yl)-1H-benzo[d]imidazol-6-carbonitrile hydrochloride]: the IC50 turned out to be 117 nM.

With `Cn1nc(C(F)(F)F)cc1-c1cc(C#N)cc2c1ncn2C/C(F)=C/CN` [Example 193, (Z)-1-(4-amino-2-fluorobut-2-en-1-yl)-4-(1-methyl-3-(trifluoromethyl)-1H-pyrazol-5-yl)-1H-benzo[d]imidazol-6-carbonitrile hydrochloride], the IC50 is 204 nM.

For the molecule `CC(=O)c1ccc(F)c(-c2cc(C(F)(F)F)cc3c2nnn3C/C(F)=C/CN)c1` [Example 197, (Z)-1-(3-(1-(4-amino-2-fluorobut-2-en-1-yl)-6-(trifluoromethyl)-1H-benzo[d][1,2,3]triazol-4-yl)-4-fluorophenyl)ethan-1-one hydrochloride], the IC50 is 308 nM.

Turning to `NC/C=C(\F)Cn1nnc2c(-c3cc(CO)ccc3F)cc(C(F)(F)F)cc21` [Example 198, (Z)-(3-(1-(4-amino-2-fluorobut-2-en-1-yl)-6-(trifluoromethyl)-1H-benzo[d][1,2,3]triazol-4-yl)-4-fluorophenyl)methanol hydrochloride], the IC50 was determined as 226 nM.

Consider `NC/C=C(\F)Cn1nnc2c(-c3cccc(CO)c3Cl)cc(C(F)(F)F)cc21` [Example 199, (Z)-(3-(1-(4-amino-2-fluoro-2-en-1-yl)-6-(trifluoromethyl)-1H-benzo[d][1,2,3]triazol-4-yl)-2-chlorophenyl)methanol hydrochloride], for which the IC50 amounted to 305 nM.

`NC/C=C(\F)Cn1nnc2c(-c3cncc(F)c3)cc(C(F)(F)F)cc21` [Example 200, (Z)-3-fluoro-4-(4-(5-fluoropyridin-3-yl)-6-(trifluoromethyl)-1H-benzo[d][1,2,3]triazol-1-yl)but-2-en-1-amine hydrochloride]: the IC50 was 330 nM.

Consider `NC/C=C(\F)Cn1nnc2c(-c3cncc(Cl)c3)cc(C(F)(F)F)cc21` [Example 201, (Z)-4-(4-(5-chloropyridin-3-yl)-6-(trifluoromethyl)-1H-benzo[d][1,2,3]triazol-1-yl)-3-fluorobut-2-en-1-amine hydrochloride], for which the IC50 was determined as 142 nM.

Take `NC/C=C(\F)Cn1nnc2c(-c3cncnc3)cc(C(F)(F)F)cc21` [Example 202, (Z)-3-fluoro-4-(4-(pyrimidin-5-yl)-6-(trifluoromethyl)-1H-benzo[d][1,2,3]triazol-1-yl)but-2-en-1-amine hydrochloride]: the half-maximal inhibitory concentration (IC50) came out at 190 nM.
